Reference: the NIST ThermoML archive (doi:10.1021/je800224k)

Settings: Liquid

CCCCCCn1cc[n+](C)c1.F[P-](F)(F)(F)(F)F [1-hexyl-3-methylimidazolium hexafluorophosphate]
Settings	mass density [kg/m3]
293.15 K, 101.33 kPa, Vibrating tube method	1297
312.9 K, 10000 kPa, Bellows volumetry	1287
312.9 K, 20000 kPa, Bellows volumetry	1292
312.9 K, 30000 kPa, Bellows volumetry	1298
312.9 K, 40000 kPa, Bellows volumetry	1303
312.9 K, 50000 kPa, Bellows volumetry	1308
312.9 K, 60000 kPa, Bellows volumetry	1313
312.9 K, 70000 kPa, Bellows volumetry	1318
312.9 K, 80000 kPa, Bellows volumetry	1322
312.9 K, 90000 kPa, Bellows volumetry	1327
312.9 K, 100000 kPa, Bellows volumetry	1331
312.9 K, 110000 kPa, Bellows volumetry	1335
312.9 K, 120000 kPa, Bellows volumetry	1339
312.9 K, 130000 kPa, Bellows volumetry	1343
312.9 K, 140000 kPa, Bellows volumetry	1347
312.9 K, 150000 kPa, Bellows volumetry	1351
312.9 K, 160000 kPa, Bellows volumetry	1355
312.9 K, 170000 kPa, Bellows volumetry	1358
312.9 K, 180000 kPa, Bellows volumetry	1362
312.9 K, 190000 kPa, Bellows volumetry	1366
312.9 K, 200000 kPa, Bellows volumetry	1369
313.15 K, 101.33 kPa, Vibrating tube method	1280.7
332.6 K, 10000 kPa, Bellows volumetry	1271
332.6 K, 20000 kPa, Bellows volumetry	1277
332.6 K, 30000 kPa, Bellows volumetry	1283
332.6 K, 40000 kPa, Bellows volumetry	1289
332.6 K, 50000 kPa, Bellows volumetry	1294
332.6 K, 60000 kPa, Bellows volumetry	1299
332.6 K, 70000 kPa, Bellows volumetry	1304
332.6 K, 80000 kPa, Bellows volumetry	1309
332.6 K, 90000 kPa, Bellows volumetry	1313
332.6 K, 100000 kPa, Bellows volumetry	1318
332.6 K, 110000 kPa, Bellows volumetry	1322
332.6 K, 120000 kPa, Bellows volumetry	1326
332.6 K, 130000 kPa, Bellows volumetry	1330
332.6 K, 140000 kPa, Bellows volumetry	1334
332.6 K, 150000 kPa, Bellows volumetry	1338
332.6 K, 160000 kPa, Bellows volumetry	1342
332.6 K, 170000 kPa, Bellows volumetry	1346
332.6 K, 180000 kPa, Bellows volumetry	1350
332.6 K, 190000 kPa, Bellows volumetry	1353
332.6 K, 200000 kPa, Bellows volumetry	1357
333.15 K, 101.33 kPa, Vibrating tube method	1265.1
352.7 K, 10000 kPa, Bellows volumetry	1256
352.7 K, 20000 kPa, Bellows volumetry	1262
352.7 K, 30000 kPa, Bellows volumetry	1268
352.7 K, 40000 kPa, Bellows volumetry	1274
352.7 K, 50000 kPa, Bellows volumetry	1280
352.7 K, 60000 kPa, Bellows volumetry	1285
352.7 K, 70000 kPa, Bellows volumetry	1290
352.7 K, 80000 kPa, Bellows volumetry	1295
352.7 K, 90000 kPa, Bellows volumetry	1300
352.7 K, 100000 kPa, Bellows volumetry	1305
352.7 K, 110000 kPa, Bellows volumetry	1309
352.7 K, 120000 kPa, Bellows volumetry	1314
352.7 K, 130000 kPa, Bellows volumetry	1318
352.7 K, 140000 kPa, Bellows volumetry	1322
352.7 K, 150000 kPa, Bellows volumetry	1326
352.7 K, 160000 kPa, Bellows volumetry	1330
352.7 K, 170000 kPa, Bellows volumetry	1334
352.7 K, 180000 kPa, Bellows volumetry	1338
352.7 K, 190000 kPa, Bellows volumetry	1342
352.7 K, 200000 kPa, Bellows volumetry	1345
353.15 K, 101.33 kPa, Vibrating tube method	1249.8
372.9 K, 10000 kPa, Bellows volumetry	1241
372.9 K, 20000 kPa, Bellows volumetry	1248
372.9 K, 30000 kPa, Bellows volumetry	1254
372.9 K, 40000 kPa, Bellows volumetry	1260
372.9 K, 50000 kPa, Bellows volumetry	1266
372.9 K, 60000 kPa, Bellows volumetry	1271
372.9 K, 70000 kPa, Bellows volumetry	1277
372.9 K, 80000 kPa, Bellows volumetry	1282
372.9 K, 90000 kPa, Bellows volumetry	1287
372.9 K, 100000 kPa, Bellows volumetry	1292
372.9 K, 110000 kPa, Bellows volumetry	1296
372.9 K, 120000 kPa, Bellows volumetry	1301
372.9 K, 130000 kPa, Bellows volumetry	1306
372.9 K, 140000 kPa, Bellows volumetry	1310
372.9 K, 150000 kPa, Bellows volumetry	1314
372.9 K, 160000 kPa, Bellows volumetry	1318
372.9 K, 170000 kPa, Bellows volumetry	1322
372.9 K, 180000 kPa, Bellows volumetry	1326
372.9 K, 190000 kPa, Bellows volumetry	1330
372.9 K, 200000 kPa, Bellows volumetry	1334
393 K, 10000 kPa, Bellows volumetry	1226
393 K, 20000 kPa, Bellows volumetry	1233
393 K, 30000 kPa, Bellows volumetry	1240
393 K, 40000 kPa, Bellows volumetry	1246
393 K, 50000 kPa, Bellows volumetry	1252
393 K, 60000 kPa, Bellows volumetry	1258
393 K, 70000 kPa, Bellows volumetry	1264
393 K, 80000 kPa, Bellows volumetry	1269
393 K, 90000 kPa, Bellows volumetry	1274
393 K, 100000 kPa, Bellows volumetry	1279
393 K, 110000 kPa, Bellows volumetry	1284
393 K, 120000 kPa, Bellows volumetry	1289
393 K, 130000 kPa, Bellows volumetry	1293
393 K, 140000 kPa, Bellows volumetry	1298
393 K, 150000 kPa, Bellows volumetry	1302
393 K, 160000 kPa, Bellows volumetry	1306
393 K, 170000 kPa, Bellows volumetry	1310
393 K, 180000 kPa, Bellows volumetry	1314
393 K, 190000 kPa, Bellows volumetry	1318
393 K, 200000 kPa, Bellows volumetry	1322
412.9 K, 10000 kPa, Bellows volumetry	1211
412.9 K, 20000 kPa, Bellows volumetry	1219
412.9 K, 30000 kPa, Bellows volumetry	1226
412.9 K, 40000 kPa, Bellows volumetry	1232
412.9 K, 50000 kPa, Bellows volumetry	1239
412.9 K, 60000 kPa, Bellows volumetry	1245
412.9 K, 70000 kPa, Bellows volumetry	1251
412.9 K, 80000 kPa, Bellows volumetry	1256
412.9 K, 90000 kPa, Bellows volumetry	1262
412.9 K, 100000 kPa, Bellows volumetry	1267
412.9 K, 110000 kPa, Bellows volumetry	1272
412.9 K, 120000 kPa, Bellows volumetry	1277
412.9 K, 130000 kPa, Bellows volumetry	1282
412.9 K, 140000 kPa, Bellows volumetry	1286
412.9 K, 150000 kPa, Bellows volumetry	1291
412.9 K, 160000 kPa, Bellows volumetry	1295
412.9 K, 170000 kPa, Bellows volumetry	1299
412.9 K, 180000 kPa, Bellows volumetry	1303
412.9 K, 190000 kPa, Bellows volumetry	1307
412.9 K, 200000 kPa, Bellows volumetry	1311
432.8 K, 10000 kPa, Bellows volumetry	1197
432.8 K, 20000 kPa, Bellows volumetry	1205
432.8 K, 30000 kPa, Bellows volumetry	1212
432.8 K, 40000 kPa, Bellows volumetry	1219
432.8 K, 50000 kPa, Bellows volumetry	1226
432.8 K, 60000 kPa, Bellows volumetry	1232
432.8 K, 70000 kPa, Bellows volumetry	1238
432.8 K, 80000 kPa, Bellows volumetry	1244
432.8 K, 90000 kPa, Bellows volumetry	1250
432.8 K, 100000 kPa, Bellows volumetry	1255
432.8 K, 110000 kPa, Bellows volumetry	1260
432.8 K, 120000 kPa, Bellows volumetry	1265
432.8 K, 130000 kPa, Bellows volumetry	1270
432.8 K, 140000 kPa, Bellows volumetry	1275
432.8 K, 150000 kPa, Bellows volumetry	1279
432.8 K, 160000 kPa, Bellows volumetry	1284
432.8 K, 170000 kPa, Bellows volumetry	1288
432.8 K, 180000 kPa, Bellows volumetry	1292
432.8 K, 190000 kPa, Bellows volumetry	1297
432.8 K, 200000 kPa, Bellows volumetry	1301
452.5 K, 10000 kPa, Bellows volumetry	1183
452.5 K, 20000 kPa, Bellows volumetry	1191
452.5 K, 30000 kPa, Bellows volumetry	1199
452.5 K, 40000 kPa, Bellows volumetry	1206
452.5 K, 50000 kPa, Bellows volumetry	1213
452.5 K, 60000 kPa, Bellows volumetry	1219
452.5 K, 70000 kPa, Bellows volumetry	1226
452.5 K, 80000 kPa, Bellows volumetry	1232
452.5 K, 90000 kPa, Bellows volumetry	1237
452.5 K, 100000 kPa, Bellows volumetry	1243
452.5 K, 110000 kPa, Bellows volumetry	1248
452.5 K, 120000 kPa, Bellows volumetry	1254
452.5 K, 130000 kPa, Bellows volumetry	1259
452.5 K, 140000 kPa, Bellows volumetry	1263
452.5 K, 150000 kPa, Bellows volumetry	1268
452.5 K, 160000 kPa, Bellows volumetry	1273
452.5 K, 170000 kPa, Bellows volumetry	1277
452.5 K, 180000 kPa, Bellows volumetry	1282
452.5 K, 190000 kPa, Bellows volumetry	1286
452.5 K, 200000 kPa, Bellows volumetry	1290
472.3 K, 10000 kPa, Bellows volumetry	1169
472.3 K, 20000 kPa, Bellows volumetry	1177
472.3 K, 30000 kPa, Bellows volumetry	1185
472.3 K, 40000 kPa, Bellows volumetry	1193
472.3 K, 50000 kPa, Bellows volumetry	1200
472.3 K, 60000 kPa, Bellows volumetry	1207
472.3 K, 70000 kPa, Bellows volumetry	1213
472.3 K, 80000 kPa, Bellows volumetry	1220
472.3 K, 90000 kPa, Bellows volumetry	1226
472.3 K, 100000 kPa, Bellows volumetry	1231
472.3 K, 110000 kPa, Bellows volumetry	1237
472.3 K, 120000 kPa, Bellows volumetry	1242
472.3 K, 130000 kPa, Bellows volumetry	1247
472.3 K, 140000 kPa, Bellows volumetry	1253
472.3 K, 150000 kPa, Bellows volumetry	1257
472.3 K, 160000 kPa, Bellows volumetry	1262
472.3 K, 170000 kPa, Bellows volumetry	1267
472.3 K, 180000 kPa, Bellows volumetry	1271
472.3 K, 190000 kPa, Bellows volumetry	1276
472.3 K, 200000 kPa, Bellows volumetry	1280
